Measured values as given in patent US6579899B1, “Composition for treatment of stress” (Massachusetts Institute of Technology, priority 1998, dated 2003).
Entries after “also recorded” stand apart in the source; their conditions may differ.

Experiments:
rats = conditions: cited from earlier work
obese, stressed patients [1] = experiment: POMS (Profile of Mood States) test; format: in vivo, human; conditions: 30 mg/day, during the study period, baseline 24
Protocol: A subgroup of obese individuals is identified, which individuals describe themselves as being unable to control their eating and who attempt to continue on a weight-reducing diet when experiencing emotional distress. These patients are treated for four months by enrolling them in a weight loss program which includes the administration of dexfenfluramine at 30 mg/day and which involves adherence to a reduced-calorie meal plan.
(§1) Objective measurements of emotional distress are made in some patients using the CES-D (Center for […] Depression Form) test, which measures current levels of emotional distress (Radloff, et al., The CES-D Scale: A Self Report Depression Scale for Research in the General Population Applied Psychological Measurement 1: 385-401, 1977); and the POMS (Profile of Mood States test, that assesses tension, depression, anger and confusion (McNair, et al., Profile of Mood States Manual;San Diego: Educational and Industrial Testing Service, 1971); both of these references are hereby incorporated by reference in their entirety. These tests are also given monthly during the treatment period. At the same time, patients also complete questionnaires that ask the patients to rate their appetite and hunger, and also to rate their tendency to eat in response to a variety of emotional and stressful triggers. The patients are also weighed monthly.

[2] = body weight in four month weight loss program; format: in vivo, human
From the text: (§2) A subgroup of obese individuals is identified, which individuals describe themselves as being unable to control their eating and who attempt to continue on a weight-reducing diet when experiencing emotional distress. […]
as §1

obese, stressed patients [3] = experiment: questionnaire rating appetite and hunger; format: in vivo, human; conditions: 30 mg/day, during the treatment period, initial score 10.5
From the text: as §2, §1

obese, stressed patients [4] = experiment: CES-D test of current levels of emotional distress in patients; format: in vivo, human
From the text: as §2, §1

obese, stressed patients [5] = experiment: questionnaire rating tendency to eat in response to emotional and stressful triggers; format: in vivo, human
From the text: as §2, §1

SMILES: CCN[C@@H](C)Cc1cccc(C(F)(F)F)c1 [dexfenfluramine]
- tail pressure/tail pinch-induced eating (rats; Rowland et al.): decrease the eating behavior
- DI50, inhibition of tail pressure-induced eating (rats; reported by Garattini, quoted from Rowland et al.): 0.6 mg/kg
- summed Tension, Depression, Anger and Confusion scores on the POMS test (obese, stressed patients [1]): 16.8
- ability of stressed overeaters to lose weight ([2]; 30 mg/day, four months, reduced-calorie meal plan): enhance the ability of stressed overeaters to lose weight; also recorded: promotes the ability to control food intake and to lose weight
- weight at the end of 4 months ([2]; patient eleven, 30 mg/day, starting weight 90.0 kg): 82.6 kg
- weight at the end of 4 months ([2]; patient eleven, 30 mg/day, starting weight 198 pounds): 181.7 pounds
- weight after 4 months ([2]; patient six, 30 mg/day, starting weight 98.2 kg): 93.4 kg
- weight after 4 months ([2]; patient six, 30 mg/day, starting weight 216 pounds): 205.5 pounds
- weight after 4 months ([2]; patient ten, 75 rising to 150 mg/day, starting weight 83.6 kg): 76.8 kg
- weight after 4 months ([2]; patient ten, 75 rising to 150 mg/day, starting weight 184 pounds): 169 pounds
- weight after 4 months ([2]; patient three, 50 rising to 150 mg/day, starting weight 137.3 kg): 130 kg
- weight after 4 months ([2]; patient three, 50 rising to 150 mg/day, starting weight 302 pounds): 286 pounds
- weight at the end of 4 months ([2]; patient twelve, 75 then 100 mg/day, starting weight 90.0 kg): 82.6 kg
- weight at the end of 4 months ([2]; patient twelve, 75 then 100 mg/day, starting weight 198 pounds): 182 pounds
- score on the appetite and hunger scale (obese, stressed patients [3]): 5.0
- lowered CES-D score (obese, stressed patients [4]; 30 mg/day, fifth of six women, from 15): 7
- lowered CES-D score (obese, stressed patients [4]; 30 mg/day, first of six women with above normal score at start, from 34): 7
- lowered CES-D score (obese, stressed patients [4]; 30 mg/day, fourth of six women, from 19): 5
- lowered CES-D score (obese, stressed patients [4]; 30 mg/day, second of six women, from 37): 8
- lowered CES-D score (obese, stressed patients [4]; 30 mg/day, sixth of six women, from 15): 3
- indicators of stress (obese, stressed patients [4]; 30 mg/day, stress-induced overeaters): reduces the indicators of stress
- lowered CES-D score (obese, stressed patients [4]; 30 mg/day, third of six women, from 22): 9
- Mood Scores CES-D (obese, stressed patients [4]; patient eleven, 30 mg/day, Month 4, baseline 19): 4
- Mood Scores CES-D (obese, stressed patients [4]; patient six, 30 mg/day, Month 4, baseline 5): 1
- Mood Scores CES-D (obese, stressed patients [4]; patient ten, 75 rising to 150 mg/day, Month 4, baseline 8): 2
- Mood Scores CES-D (obese, stressed patients [4]; patient three, 50 rising to 150 mg/day, Month 4, baseline 23): 17
- Mood Scores CES-D (obese, stressed patients [4]; patient twelve, 75 then 100 mg/day, Month 4, baseline 29): 18
- score on the emotional triggers to overeating report (obese, stressed patients [5]; 30 mg/day, end of the treatment period, from 23.4±9.8, ± standard deviations): 8.6±8.5
- Emotional Triggers (obese, stressed patients [5]; patient eleven, 30 mg/day, Month 4, baseline 30): 7
- Emotional Triggers (obese, stressed patients [5]; patient six, 30 mg/day, Month 4, baseline 23): 4
- Emotional Triggers (obese, stressed patients [5]; patient ten, 75 rising to 150 mg/day, Month 4, baseline 14): 2
- Emotional Triggers (obese, stressed patients [5]; patient three, 50 rising to 150 mg/day, Month 4, baseline 34): 24
- Emotional Triggers (obese, stressed patients [5]; patient twelve, 75 then 100 mg/day, Month 4, baseline 25): 3
